Where two headings read alike, the source gives them in different places.
How the values were obtained:
Assay type in all cases: cell-based
[1] = test system: NCI-H23 (human lung cancer); test: In vitro cytotoxicity, SRB assay, NCI-H23; conditions: for IC50: Homo sapiens; for NCI-H23 SI: selectivity coefficient vs normal BALB/3T3 cells
[2] = test system: PFSK-1 (malignant primitive neuroectodermal tumour); test: In vitro cytotoxicity, SRB assay, PFSK-1; conditions: for IC50: Homo sapiens; for PFSK-1 SI: selectivity coefficient vs normal BALB/3T3 cells
[3] = test system: A2780 (human ovarian cancer); test: In vitro cytotoxicity, SRB assay, A2780; conditions: for IC50: Homo sapiens; for A2780 SI: selectivity coefficient vs normal BALB/3T3 cells
[4] = test system: A2780Cis (cisplatin-resistant human ovarian cancer); test: In vitro cytotoxicity, SRB assay, A2780Cis; conditions: for IC50: Homo sapiens, A2780cis
A375 (human melanoma) = test: In vitro cytotoxicity, SRB assay, A375; conditions: for IC50: Homo sapiens; for A375 SI: selectivity coefficient vs normal BALB/3T3 cells
Hs294T (human melanoma) = test: cells; conditions: for IC50: Hs 294T; for Hs294T SI: selectivity coefficient vs normal BALB/3T3 cells
[5] = test system: PLC/PRF/5 (human liver cancer); test: cells; conditions: for PLC/PRF/5 SI: selectivity coefficient vs normal BALB/3T3 cells
[6] = test system: SNU-16 (human gastric cancer); test: cells; conditions: for SNU-16 SI: selectivity coefficient vs normal BALB/3T3 cells
[7] = test system: KG-1 (human acute myeloid leukaemia); test: In vitro cytotoxicity, MTT assay, KG-1; conditions: for IC50: Homo sapiens, 72 h with compound, MTT, n/a = non-active compound; for KG-1 SI: selectivity coefficient vs normal BALB/3T3 cells
[8] = test system: MIA PaCa-2 (human pancreatic cancer); test: cells; conditions: for MIA PaCa-2 SI: selectivity coefficient vs normal BALB/3T3 cells
[9] = test system: BALB/3T3 (normal mouse fibroblasts); test: In vitro cytotoxicity, SRB assay, normal BALB/3T3 fibroblasts
cancer cells = test: In vitro cytotoxic activity on the panel of cancer cell lines (MTT/SRB), general statements; conditions: for anti-proliferative effect compared to that of the parent compound: Tables 3.1, 3.2, 4 and 5, parent compound salinomycin; for biological properties (IC50, SI) compared to the corresponding epi compounds: table 5 comparative examples, retained vs inverted C20 configuration
[10] = test system: NCI-H358 (human lung cancer); test: cells; conditions: Table 4; for IC50: NCI-H358 human lung cancer cells, read-out: IC50 (nM) NCI-H358
[11] = test system: MV-4-11 (human biphenotypic leukaemia); test: In vitro cytotoxicity, MTT assay, MV-4-11
[12] = 72 h, read-out: A2780Cis IC50 (nM)
[13] = Homo sapiens, 72 h with compound, SRB, n/a = non-active compound, read-out: Hs294T IC50
[14] = Homo sapiens, PLC-PRF-5, 72 h with compound, SRB, n/a = non-active compound, read-out: PLC/PRF/5 IC50
[15] = Homo sapiens, SNU-16, 72 h with compound, MTT, n/a = non-active compound, read-out: SNU-16 IC50
[16] = Homo sapiens, MIA PaCa-2, 72 h with compound, SRB, n/a = non-active compound, read-out: MIA PaCa-2 IC50
[17] = Mus musculus, BALB/3T3, normal cells, 72 h with compound, SRB, n/a = non-active compound, read-out: BALB/3T3 IC50
[18] = NCI-H23, 72 h with compound, SRB, n/a = non-active compound, read-out: NCI-H23 IC50
[19] = PFSK-1, 72 h with compound, SRB, n/a = non-active compound, read-out: PFSK-1 IC50
[20] = A2780, 72 h with compound, SRB, n/a = non-active compound, read-out: A2780 IC50
[21] = A-375, 72 h with compound, SRB, n/a = non-active compound, read-out: A375 IC50
[22] = Table 5, BALB/3T3 normal mouse fibroblasts, read-out: IC50 (nM) BALB3T3 normal cells
[23] = Table 4, Hs294T human melanoma cells, read-out: IC50 (nM) Hs294T
[24] = Table 4, PLC/PRF/5 human liver cancer cells, read-out: IC50 (nM) PLC/PRF/5
[25] = Table 4, SNU-16 human gastric cancer cells, read-out: IC50 (nM) SNU-16
[26] = Table 4, MIA PaCa-2 human pancreatic cancer cells, read-out: IC50 (nM) MIA PaCa-2
[27] = Table 4, selectivity coefficient vs normal BALB/3T3 fibroblasts

| SMILES | NCI-H23 SI [1] | PFSK-1 SI [2] | A2780 SI [3] | A2780Cis RI [4] | A2780Cis SI [4] | IC50 [4, 12] [nM] | A375 SI (A375 (human melanoma)) | IC50 (Hs294T (human melanoma); [13]) [nM] | Hs294T SI (Hs294T (human melanoma)) | IC50 [5, 14] [nM] | PLC/PRF/5 SI [5] | IC50 [6, 15] [nM] | SNU-16 SI [6] | IC50 [7] [nM] | KG-1 SI [7] | IC50 [8, 16] [nM] | MIA PaCa-2 SI [8] | IC50 [9, 17] [nM] | anti-proliferative effect compared to that of the parent compound (cancer cells) | IC50 [1, 18] [nM] | also measured |
| --- | --- | --- | --- | --- | --- | --- | --- | --- | --- | --- | --- | --- | --- | --- | --- | --- | --- | --- | --- | --- | --- |
| CC[C@@H](C(=O)[C@@H](C)[C@@H](O)[C@H](C)[C@@H]1O[C@@H]([C@@H](CC)C(=O)O)CC[C@@H]1C)[C@H]1O[C@]2(C=C[C@@H](NC(=S)NCc3ccccc3)[C@]3(CC[C@@](C)([C@H]4CC[C@](O)(CC)[C@H](C)O4)O3)O2)[C@H](C)C[C@@H]1C [FLC-00346-1] | 1.1 | 2.7 | 96.4 | 0.2 | 487.1 | 0.14 | 0.2 | 388 | 0.2 | 5.8 | 11.9 | 4.52 | 15.2 | 20.9 | 3.3 | 43.3 | 1.6 | 68.8 | several times more potent compared to that of the parent compound |  | IC50 ([1]; NCI-H23, 72 h, read-out: NCI-H23 IC50 (nM)): 60.3 nM; IC50 ([2]; PFSK-1, 72 h, read-out: PFSK-1 IC50 (nM)): 25.1 nM; IC50 ([3]; A2780, 72 h, read-out: A2780 IC50 (nM)): 0.71 nM; IC50 (A375 (human melanoma); A-375, 72 h, read-out: A375 IC50 (nM)): 393 nM |
| CC[C@@H](C(=O)[C@@H](C)[C@@H](O)[C@H](C)[C@@H]1O[C@@H]([C@@H](CC)C(=O)O)CC[C@@H]1C)[C@H]1O[C@]2(C=C[C@@H](NC(=S)Nc3ccc(C(F)(F)F)cc3)[C@]3(CC[C@@](C)([C@H]4CC[C@](O)(CC)[C@H](C)O4)O3)O2)[C@H](C)C[C@@H]1C [FLC-00347-1] | 13.3 | 16.1 | 79.0 | 0.3 | 264.7 | 0.28 | 0.8 | 103 | 0.7 | 5.87 | 12.5 | 13.5 | 5.4 | 14.1 | 5.2 | 44.3 | 1.7 | 73.2 | several times more potent compared to that of the parent compound | 5.51 | IC50 [2, 19]: 4.54 nM; IC50 [3, 20]: 0.93 nM; IC50 (A375 (human melanoma); [21]): 91.2 nM |
| CCCCCCCCNC(=O)N[C@@H]1C=C[C@]2(O[C@H]([C@@H](CC)C(=O)[C@@H](C)[C@@H](O)[C@H](C)[C@@H]3O[C@@H]([C@@H](CC)C(=O)O)CC[C@@H]3C)[C@@H](C)C[C@H]2C)O[C@@]12CC[C@@](C)([C@H]1CC[C@](O)(CC)[C@H](C)O1)O2 [FLC-00366-1] | 19.8 | 25.3 | 128.0 | 0.2 | 550.8 | 0.21 | 1.7 | 214 | 0.5 | 5.62 | 20.4 | 8.64 | 13.3 | 40.6 | 2.8 | 45 | 2.5 | 115 |  | 5.78 | IC50 [2, 19]: 4.53 nM; IC50 [3, 20]: 0.9 nM; SI A2780Cis [4]: 550.8; IC50 ([4]; read-out: IC50 (nM) A2780Cis): 0.21 nM; IC50 (A375 (human melanoma); [21]): 69.4 nM; IC50 [9, 22]: 115 nM; biological properties (IC50, SI) compared to the corresponding epi compounds (cancer cells): improved biological properties compared to their counterparts with a configuration conversion |
| CC[C@@H](C(=O)[C@@H](C)[C@@H](O)[C@H](C)[C@@H]1O[C@@H]([C@@H](CC)C(=O)O)CC[C@@H]1C)[C@H]1O[C@]2(C=C[C@@H](NC(=O)Nc3ccccc3)[C@]3(CC[C@@](C)([C@H]4CC[C@](O)(CC)[C@H](C)O4)O3)O2)[C@H](C)C[C@@H]1C [FLC-00374-1] | 24.1 | 18.4 | 156.6 | 0.2 | 671.0 | 0.11 | 2.1 | 73.1 | 1.0 | 8.83 | 8.0 | 4.03 | 17.5 | 12.5 | 5.6 | 28.7 | 2.5 | 70.5 | several times more potent compared to that of the parent compound | 2.92 | IC50 [2, 19]: 3.83 nM; IC50 [3, 20]: 0.45 nM; SI A2780Cis [4]: 671.0; IC50 ([4]; read-out: IC50 (nM) A2780Cis): 0.11 nM; IC50 (A375 (human melanoma); [21]): 34.2 nM; IC50 [9, 22]: 70.5 nM; biological properties (IC50, SI) compared to the corresponding epi compounds (cancer cells): improved biological properties compared to their counterparts with a configuration conversion |
| CCCOC(=O)N[C@@H]1C=C[C@]2(O[C@H]([C@@H](CC)C(=O)[C@@H](C)[C@@H](O)[C@H](C)[C@@H]3O[C@@H]([C@@H](CC)C(=O)O)CC[C@@H]3C)[C@@H](C)C[C@H]2C)O[C@@]12CC[C@@](C)([C@H]1CC[C@](O)(CC)[C@H](C)O1)O2 [FLC-00424-1•Na] |  |  |  |  |  |  |  |  |  |  |  |  |  |  |  |  |  |  | several times more potent compared to that of the parent compound |  | IC50 (Hs294T (human melanoma); [23]): 685 nM; IC50 [5, 24]: 5.01 nM; IC50 [6, 25]: 220 nM; IC50 [8, 26]: 38.4 nM; IC50 [10]: 48.7 nM |
| CC[C@@H](C(=O)[C@@H](C)[C@@H](O)[C@H](C)[C@@H]1O[C@@H]([C@@H](CC)C(=O)O)CC[C@@H]1C)[C@H]1O[C@]2(C=C[C@@H](NC(=O)OCC(F)F)[C@]3(CC[C@@](C)([C@H]4CC[C@](O)(CC)[C@H](C)O4)O3)O2)[C@H](C)C[C@@H]1C [FLC-00446-1•Na] |  |  |  |  |  |  |  |  |  |  |  |  |  |  |  |  |  |  | several times more potent compared to that of the parent compound |  | SI A2780Cis [4]: 294.5; IC50 ([4]; read-out: IC50 (nM) A2780Cis): 0.71 nM; IC50 (Hs294T (human melanoma); [23]): 189 nM; SI Hs294T (Hs294T (human melanoma); [27]): 1.1; IC50 [5, 24]: 37.9 nM; SI PLC/PRF/5 [5, 27]: 5.5; IC50 [6, 25]: 262 nM; SI SNU-16 [6, 27]: 0.8; IC50 [8, 26]: 26.8 nM; SI MIA PaCa-2 [8, 27]: 7.8; IC50 ([9]; Table 4, BALB/3T3 normal mouse fibroblasts, read-out: IC50 (nM) BALB3T3 normal cells): 209 nM; SI MV4-11 [11]: 298.7; IC50 ([11]; Homo sapiens, MV4-11, read-out: IC50 (nM) MV4-11): 0.7 nM; IC50 [10]: 50.8 nM; SI NCI-H358 ([10]; selectivity coefficient vs normal BALB/3T3 fibroblasts): 4.12 |

Reference: US20240294541A1, “COMPOUNDS CONSTITUTING C20-MODIFIED SALINOMYCIN DERIVATIVES, A METHOD FOR OBTAINING THE SAME, A COMPOSITION CONTAINING THE SAME AND A USE OF SAID COMPOUNDS” (FILECLO SPOLKA Z OGRANICZONA ODPOWIEDZIALNOSCIA, priority 2021, published 2024)
